In ChEMBL document CHEMBL5131445, “Optimization of a novel piperazinone series as potent selective peripheral covalent BTK inhibitors” (Bioorg Med Chem Lett, 2022):

How the values were obtained:
[1] = target: Receptor tyrosine-protein kinase erbB-2 (Homo sapiens, UniProt P04626); assay: Binding affinity to ERBB2 (unknown origin) assessed as dissociation constant by KINOMEscan analysis
[2] = Inhibition of CD69 expression on CD19 positive B cells in anti-IgD stimulated human whole blood; type: functional, tissue-based; conditions: CD19 positive B cell
[3] = target: Voltage-gated inwardly rectifying potassium channel KCNH2 (Homo sapiens, UniProt Q12809); assay: Inhibition of hERG; type: toxicity
Voltage-gated inwardly rectifying potassium channel KCNH2, sequence (Q12809 whole entry): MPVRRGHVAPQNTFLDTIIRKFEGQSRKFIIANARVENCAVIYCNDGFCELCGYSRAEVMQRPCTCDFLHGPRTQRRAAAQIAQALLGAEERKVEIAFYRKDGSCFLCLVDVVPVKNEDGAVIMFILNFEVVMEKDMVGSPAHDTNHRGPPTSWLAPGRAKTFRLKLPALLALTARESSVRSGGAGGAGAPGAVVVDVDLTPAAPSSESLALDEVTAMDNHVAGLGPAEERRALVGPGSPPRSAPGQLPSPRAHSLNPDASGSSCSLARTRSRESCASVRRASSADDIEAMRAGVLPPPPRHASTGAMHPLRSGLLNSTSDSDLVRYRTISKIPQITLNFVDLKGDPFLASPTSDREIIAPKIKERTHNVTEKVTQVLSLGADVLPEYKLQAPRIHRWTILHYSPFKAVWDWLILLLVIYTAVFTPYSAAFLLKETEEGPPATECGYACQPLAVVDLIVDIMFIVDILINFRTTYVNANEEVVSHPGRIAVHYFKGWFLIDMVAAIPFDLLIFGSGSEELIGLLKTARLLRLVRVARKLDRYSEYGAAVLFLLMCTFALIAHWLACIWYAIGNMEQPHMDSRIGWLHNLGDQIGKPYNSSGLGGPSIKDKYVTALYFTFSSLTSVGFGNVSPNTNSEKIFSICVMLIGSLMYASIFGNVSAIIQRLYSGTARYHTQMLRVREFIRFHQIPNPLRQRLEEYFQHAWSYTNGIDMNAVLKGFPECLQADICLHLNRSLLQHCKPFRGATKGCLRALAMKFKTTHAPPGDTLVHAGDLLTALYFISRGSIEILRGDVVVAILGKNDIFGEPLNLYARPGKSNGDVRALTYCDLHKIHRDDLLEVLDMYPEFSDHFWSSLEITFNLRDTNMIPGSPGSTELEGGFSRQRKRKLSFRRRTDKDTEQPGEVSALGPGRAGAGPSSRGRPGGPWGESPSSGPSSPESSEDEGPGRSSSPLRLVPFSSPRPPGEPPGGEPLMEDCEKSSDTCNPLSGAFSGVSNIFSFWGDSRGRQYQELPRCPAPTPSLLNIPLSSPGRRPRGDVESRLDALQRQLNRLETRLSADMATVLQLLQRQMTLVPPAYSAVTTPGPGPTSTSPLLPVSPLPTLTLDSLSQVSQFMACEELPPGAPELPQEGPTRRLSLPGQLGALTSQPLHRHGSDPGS

[4] = target: T1, Tyrosine-protein kinase BTK (Homo sapiens, UniProt Q06187); assay: Inhibition of BTK in human Ramos cells assessed as target occupancy; type: cell-based
T1 sequence (Q06187 whole entry): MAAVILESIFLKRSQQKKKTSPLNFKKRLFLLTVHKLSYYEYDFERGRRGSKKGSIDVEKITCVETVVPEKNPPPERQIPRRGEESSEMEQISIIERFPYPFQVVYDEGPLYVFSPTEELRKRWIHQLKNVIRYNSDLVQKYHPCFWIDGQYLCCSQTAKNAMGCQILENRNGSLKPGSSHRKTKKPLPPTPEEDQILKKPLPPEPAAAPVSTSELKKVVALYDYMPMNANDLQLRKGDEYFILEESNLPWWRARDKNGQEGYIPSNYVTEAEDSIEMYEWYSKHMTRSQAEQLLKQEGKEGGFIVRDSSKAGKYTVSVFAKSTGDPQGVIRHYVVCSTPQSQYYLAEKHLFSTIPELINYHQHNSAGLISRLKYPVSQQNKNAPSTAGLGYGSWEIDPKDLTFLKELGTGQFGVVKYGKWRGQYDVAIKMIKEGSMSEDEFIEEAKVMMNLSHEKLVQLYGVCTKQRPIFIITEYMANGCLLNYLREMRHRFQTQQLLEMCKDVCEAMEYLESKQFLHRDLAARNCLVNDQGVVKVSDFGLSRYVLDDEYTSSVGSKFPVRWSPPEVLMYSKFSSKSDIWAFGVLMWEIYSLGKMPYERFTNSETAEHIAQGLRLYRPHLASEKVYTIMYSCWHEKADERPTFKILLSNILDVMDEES

[5] = Metabolic stability in rat liver microsomes assessed as intrinsic clearance; type: ADME, Microsome; conditions: read-out: CLH
[6] = target: T2, Tyrosine-protein kinase ITK/TSK (Homo sapiens, UniProt Q08881); assay: Binding affinity to ITK (unknown origin) assessed as dissociation constant by KINOMEscan analysis
T2 sequence (Q08881 whole entry): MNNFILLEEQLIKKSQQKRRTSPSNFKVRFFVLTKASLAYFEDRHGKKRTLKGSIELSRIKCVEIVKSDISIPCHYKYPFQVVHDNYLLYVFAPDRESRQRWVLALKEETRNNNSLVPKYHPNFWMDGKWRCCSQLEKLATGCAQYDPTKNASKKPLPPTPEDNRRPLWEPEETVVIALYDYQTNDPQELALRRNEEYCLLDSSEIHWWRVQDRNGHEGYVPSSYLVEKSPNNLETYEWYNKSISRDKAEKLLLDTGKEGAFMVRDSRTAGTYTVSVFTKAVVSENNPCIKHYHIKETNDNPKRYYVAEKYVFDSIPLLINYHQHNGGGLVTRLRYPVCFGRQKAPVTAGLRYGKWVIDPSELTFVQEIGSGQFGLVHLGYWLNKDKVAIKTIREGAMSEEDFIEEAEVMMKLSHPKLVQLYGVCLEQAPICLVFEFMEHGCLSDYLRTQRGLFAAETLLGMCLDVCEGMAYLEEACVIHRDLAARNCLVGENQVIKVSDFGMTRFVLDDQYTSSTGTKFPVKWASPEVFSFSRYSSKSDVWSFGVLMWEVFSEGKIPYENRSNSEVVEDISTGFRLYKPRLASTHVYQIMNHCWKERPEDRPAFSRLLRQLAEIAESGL

BCRP = assay: Permeability across apical to basolateral side in dog MDCK-BCRP cells; type: ADME, cell-based, Canis lupus familiaris; conditions: read-out: permeability
[7] = target: T1, Tyrosine-protein kinase BTK; assay: Inhibition of BTK (unknown origin) at 1 uM by KINOMEscan assay relative to control
[8] = target: Tyrosine-protein kinase Blk (Homo sapiens, UniProt P51451); assay: Binding affinity to BLK (unknown origin) assessed as dissociation constant by KINOMEscan analysis
Tyrosine-protein kinase Blk, sequence (P51451 whole entry): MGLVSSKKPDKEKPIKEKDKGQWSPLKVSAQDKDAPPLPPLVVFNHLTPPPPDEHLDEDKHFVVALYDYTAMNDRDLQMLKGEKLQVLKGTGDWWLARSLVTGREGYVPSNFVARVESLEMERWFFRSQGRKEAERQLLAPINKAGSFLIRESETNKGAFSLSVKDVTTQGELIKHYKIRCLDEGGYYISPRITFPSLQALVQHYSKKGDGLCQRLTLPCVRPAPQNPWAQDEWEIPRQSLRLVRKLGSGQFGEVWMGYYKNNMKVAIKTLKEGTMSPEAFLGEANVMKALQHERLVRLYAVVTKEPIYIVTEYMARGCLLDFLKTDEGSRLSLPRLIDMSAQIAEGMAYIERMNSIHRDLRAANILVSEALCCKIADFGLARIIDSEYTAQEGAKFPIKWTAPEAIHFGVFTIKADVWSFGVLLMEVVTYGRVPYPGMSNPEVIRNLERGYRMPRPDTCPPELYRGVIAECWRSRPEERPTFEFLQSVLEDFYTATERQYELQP

[9] = target: Epidermal growth factor receptor (Homo sapiens, UniProt P00533); assay: Binding affinity to EGFR (unknown origin) assessed as dissociation constant by KINOMEscan analysis
Epidermal growth factor receptor, sequence (P00533 whole entry): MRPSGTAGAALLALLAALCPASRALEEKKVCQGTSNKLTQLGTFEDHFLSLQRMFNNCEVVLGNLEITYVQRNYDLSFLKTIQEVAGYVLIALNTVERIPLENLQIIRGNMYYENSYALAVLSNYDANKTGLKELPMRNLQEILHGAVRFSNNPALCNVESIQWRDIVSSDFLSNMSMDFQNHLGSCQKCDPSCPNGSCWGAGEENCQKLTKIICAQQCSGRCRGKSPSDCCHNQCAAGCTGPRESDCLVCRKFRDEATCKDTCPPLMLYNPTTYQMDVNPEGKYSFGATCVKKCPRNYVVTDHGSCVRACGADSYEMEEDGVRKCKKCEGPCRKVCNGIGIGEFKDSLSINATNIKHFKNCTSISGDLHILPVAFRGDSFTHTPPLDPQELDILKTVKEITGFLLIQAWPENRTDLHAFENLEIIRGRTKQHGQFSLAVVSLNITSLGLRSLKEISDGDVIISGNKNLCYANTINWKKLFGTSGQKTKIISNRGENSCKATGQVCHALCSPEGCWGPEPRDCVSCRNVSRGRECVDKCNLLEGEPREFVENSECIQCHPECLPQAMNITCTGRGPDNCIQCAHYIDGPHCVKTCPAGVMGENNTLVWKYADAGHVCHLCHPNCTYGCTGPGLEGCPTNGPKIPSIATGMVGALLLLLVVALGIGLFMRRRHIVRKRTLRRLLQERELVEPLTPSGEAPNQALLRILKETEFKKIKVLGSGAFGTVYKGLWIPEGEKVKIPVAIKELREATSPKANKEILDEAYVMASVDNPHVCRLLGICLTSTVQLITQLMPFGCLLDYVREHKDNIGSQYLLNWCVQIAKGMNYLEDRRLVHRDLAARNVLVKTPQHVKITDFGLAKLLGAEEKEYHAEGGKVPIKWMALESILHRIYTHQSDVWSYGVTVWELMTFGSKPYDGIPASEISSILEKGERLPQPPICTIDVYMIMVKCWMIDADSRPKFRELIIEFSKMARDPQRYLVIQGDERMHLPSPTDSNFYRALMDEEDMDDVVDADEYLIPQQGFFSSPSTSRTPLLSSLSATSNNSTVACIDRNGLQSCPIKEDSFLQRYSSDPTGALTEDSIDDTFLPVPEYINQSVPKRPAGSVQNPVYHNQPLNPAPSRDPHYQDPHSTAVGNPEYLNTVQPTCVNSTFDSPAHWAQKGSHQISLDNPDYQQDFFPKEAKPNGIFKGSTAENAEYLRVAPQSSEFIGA

[10] = Clearance in iv dosed Sprague-Dawley rat; type: ADME, organism-based; conditions: in vivo
[11] = target: T1, Tyrosine-protein kinase BTK; assay: Binding affinity to BTK (unknown origin) assessed as dissociation constant by KINOMEscan analysis
[12] = target: T3, Tyrosine-protein kinase JAK3 (Homo sapiens, UniProt P52333); assay: Binding affinity to JAK3 (unknown origin) assessed as dissociation constant by KINOMEscan analysis
T3 sequence (P52333 whole entry): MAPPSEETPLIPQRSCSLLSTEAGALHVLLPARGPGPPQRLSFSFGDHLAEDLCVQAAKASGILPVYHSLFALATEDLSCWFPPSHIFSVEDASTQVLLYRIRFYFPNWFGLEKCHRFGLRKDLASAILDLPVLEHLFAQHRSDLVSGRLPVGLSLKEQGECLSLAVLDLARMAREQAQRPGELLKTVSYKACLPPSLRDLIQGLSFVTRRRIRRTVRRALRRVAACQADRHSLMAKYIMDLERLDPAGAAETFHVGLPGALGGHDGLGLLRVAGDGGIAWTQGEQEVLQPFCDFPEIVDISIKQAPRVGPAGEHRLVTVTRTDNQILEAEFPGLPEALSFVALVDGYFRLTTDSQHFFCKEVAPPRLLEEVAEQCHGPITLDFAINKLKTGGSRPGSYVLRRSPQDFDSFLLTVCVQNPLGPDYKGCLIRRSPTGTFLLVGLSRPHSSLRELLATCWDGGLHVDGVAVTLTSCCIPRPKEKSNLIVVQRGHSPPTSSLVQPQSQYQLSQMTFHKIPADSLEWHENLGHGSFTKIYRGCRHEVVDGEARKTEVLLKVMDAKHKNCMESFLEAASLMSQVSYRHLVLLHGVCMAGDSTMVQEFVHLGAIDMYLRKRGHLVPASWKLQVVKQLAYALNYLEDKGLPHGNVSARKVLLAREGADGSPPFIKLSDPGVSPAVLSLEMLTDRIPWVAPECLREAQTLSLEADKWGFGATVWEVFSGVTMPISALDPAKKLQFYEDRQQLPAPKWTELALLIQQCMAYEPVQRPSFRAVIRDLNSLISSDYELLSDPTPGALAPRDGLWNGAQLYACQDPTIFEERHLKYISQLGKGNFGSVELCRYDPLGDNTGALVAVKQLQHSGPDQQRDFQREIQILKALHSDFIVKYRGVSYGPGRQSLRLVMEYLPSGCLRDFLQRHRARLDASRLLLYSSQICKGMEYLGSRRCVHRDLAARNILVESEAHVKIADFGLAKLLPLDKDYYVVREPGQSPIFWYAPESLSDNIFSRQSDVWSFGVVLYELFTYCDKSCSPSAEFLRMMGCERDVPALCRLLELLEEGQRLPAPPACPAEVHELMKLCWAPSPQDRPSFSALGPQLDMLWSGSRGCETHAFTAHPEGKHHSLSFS

Cytochrome P450 2B6 = target: T4, Cytochrome P450 2B6 (Homo sapiens, UniProt P20813); assay: Inhibition of human CYP2B6; type: ADME
T4 sequence (P20813 whole entry): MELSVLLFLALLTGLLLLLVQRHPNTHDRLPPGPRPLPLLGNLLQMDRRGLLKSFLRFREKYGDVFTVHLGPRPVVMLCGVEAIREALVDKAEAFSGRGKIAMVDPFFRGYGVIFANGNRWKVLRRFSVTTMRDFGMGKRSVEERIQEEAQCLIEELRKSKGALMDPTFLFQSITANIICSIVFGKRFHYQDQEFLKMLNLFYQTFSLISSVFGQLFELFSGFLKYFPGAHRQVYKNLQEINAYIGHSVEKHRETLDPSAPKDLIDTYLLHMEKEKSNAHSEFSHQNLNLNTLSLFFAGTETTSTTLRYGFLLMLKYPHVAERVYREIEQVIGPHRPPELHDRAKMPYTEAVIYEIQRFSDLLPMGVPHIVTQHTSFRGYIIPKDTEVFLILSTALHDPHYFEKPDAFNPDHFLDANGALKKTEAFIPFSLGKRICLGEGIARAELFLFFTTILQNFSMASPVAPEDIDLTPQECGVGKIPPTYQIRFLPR

[13] = Volume of distribution at steady state in iv dosed Sprague-Dawley rat; type: ADME, organism-based; conditions: in vivo, read-out: Vdss
[14] = target: Receptor tyrosine-protein kinase erbB-4 (Homo sapiens, UniProt Q15303); assay: Binding affinity to ERBB4 (unknown origin) assessed as dissociation constant by KINOMEscan analysis

Receptor tyrosine-protein kinase erbB-2, sequence (P04626 whole entry): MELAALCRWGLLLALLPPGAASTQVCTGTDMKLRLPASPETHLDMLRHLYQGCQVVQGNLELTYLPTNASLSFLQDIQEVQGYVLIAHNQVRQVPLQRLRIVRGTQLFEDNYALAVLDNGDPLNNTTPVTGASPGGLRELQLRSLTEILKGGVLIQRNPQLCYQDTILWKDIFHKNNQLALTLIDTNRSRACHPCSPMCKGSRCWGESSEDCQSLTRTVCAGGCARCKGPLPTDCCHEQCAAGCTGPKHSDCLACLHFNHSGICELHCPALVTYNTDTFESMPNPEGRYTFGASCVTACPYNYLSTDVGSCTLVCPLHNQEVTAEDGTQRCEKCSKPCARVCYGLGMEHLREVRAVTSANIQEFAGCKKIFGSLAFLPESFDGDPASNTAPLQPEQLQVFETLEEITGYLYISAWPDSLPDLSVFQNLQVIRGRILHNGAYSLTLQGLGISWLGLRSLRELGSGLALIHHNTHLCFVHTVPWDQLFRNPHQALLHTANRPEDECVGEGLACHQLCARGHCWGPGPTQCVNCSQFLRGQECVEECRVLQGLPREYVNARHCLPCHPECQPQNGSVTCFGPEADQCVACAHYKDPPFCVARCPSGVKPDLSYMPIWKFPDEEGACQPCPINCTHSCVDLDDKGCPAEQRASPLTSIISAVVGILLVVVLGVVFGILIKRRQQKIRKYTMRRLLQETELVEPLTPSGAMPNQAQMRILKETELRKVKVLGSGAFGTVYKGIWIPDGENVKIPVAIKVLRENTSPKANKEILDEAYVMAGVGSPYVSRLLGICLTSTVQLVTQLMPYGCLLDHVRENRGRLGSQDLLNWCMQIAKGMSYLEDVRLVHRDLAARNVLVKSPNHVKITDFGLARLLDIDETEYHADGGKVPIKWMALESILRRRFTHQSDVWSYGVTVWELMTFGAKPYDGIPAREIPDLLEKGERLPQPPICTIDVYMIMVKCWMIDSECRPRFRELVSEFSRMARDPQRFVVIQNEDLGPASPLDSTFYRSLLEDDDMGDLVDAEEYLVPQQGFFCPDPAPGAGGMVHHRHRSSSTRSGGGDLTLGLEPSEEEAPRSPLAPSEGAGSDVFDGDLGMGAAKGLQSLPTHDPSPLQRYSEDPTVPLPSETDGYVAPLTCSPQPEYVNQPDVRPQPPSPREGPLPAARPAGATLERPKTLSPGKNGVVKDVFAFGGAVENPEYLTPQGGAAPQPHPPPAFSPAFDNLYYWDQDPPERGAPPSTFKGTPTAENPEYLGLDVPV

## C=CC(=O)N(C)CCOc1c(N)ncnc1-c1ccc(CN2CCN(CC(C)C)CC2=O)c(C)c1
[1]
  Kd: 20 µM
[2]
  IC50: 30 nM
[3]
  IC50: > 60 µM
[4]
  IC50: 3.1 nM
[5]
  CLint scaled: 154 mL/min/kg
[6]
  Kd: 30 µM
BCRP
  Papp A→B: 0.4 ×10⁻⁶ cm/s
[7]
  inhibition: > 90%
[8]
  Kd: 10 µM
[9]
  Kd: 30 µM
[10]
  clearance: 126 mL/min/kg
[11]
  Kd: 0.91 nM
[12]
  Kd: 2900 nM
Cytochrome P450 2B6
  IC50: > 10 µM
[13]
  Vd: 126 L/kg
[14]
  Kd: 890 nM
